Data as given in ChEMBL document CHEMBL1201862, “PubChem BioAssay data set” (2004).
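Results reflect a 48-hour exposure of cells in 96-well plates to compound at five concentrations. At the GI50, growth is halved.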 The source made the active and inactive calls. Rule as the data show it: active = GI50 up to about 1.1 µM and inactive = higher.

Columns and labels:
Assay in all cases: DTP human tumour cell line panel, 48 h
HT-29 = tested on: HT-29
UACC-62 = tested on: UACC-62
KM12 = tested on: KM12
OVCAR-5 = tested on: OVCAR-5
HOP-62 = tested on: HOP-62
SK-MEL-5 = tested on: SK-MEL-5
EKVX = tested on: EKVX
RPMI-8226 = tested on: RPMI-8226
RXF 393 = tested on: RXF 393
A549 = tested on: A549
Malme-3M = tested on: Malme-3M
A498 = tested on: A498
NCI-H23 = tested on: NCI-H23
HOP-92 = tested on: HOP-92
NCI-H226 = tested on: NCI-H226
COLO 205 = tested on: COLO 205
NCI-H522 = tested on: NCI-H522

Measured: GI50

CCO/C=C/C(C)C1(C(=O)OCC)CCCCC1=O (centres undefined)
inactive: HT-29 > 100 µM | UACC-62 > 100 µM | KM12 > 100 µM | OVCAR-5 > 100 µM | HOP-62 > 100 µM | SK-MEL-5 > 100 µM | EKVX > 100 µM | RPMI-8226 84.1 µM | RXF 393 > 100 µM | A549 > 100 µM | Malme-3M > 100 µM | A498 > 100 µM | NCI-H23 > 100 µM | HOP-92 > 100 µM | NCI-H226 > 100 µM | COLO 205 > 100 µM | NCI-H522 > 100 µM

CCOC(=O)C1=C(Nc2ccc(Br)cc2)OCC1=O
inactive: HT-29 > 100 µM | UACC-62 > 100 µM | KM12 > 100 µM | HOP-62 > 100 µM | SK-MEL-5 > 100 µM | EKVX > 100 µM | RXF 393 > 100 µM | A549 > 100 µM | Malme-3M > 100 µM | A498 > 100 µM | NCI-H23 > 100 µM | HOP-92 > 100 µM | NCI-H226 > 100 µM | COLO 205 > 100 µM | NCI-H522 > 100 µM

Oc1ccc2c3c1OC1C(=NN=C4CCC5(O)C6Cc7ccc(O)c8c7C5(CCN6CC5CC5)C4O8)CCC4(O)C(C2)N(CC2CC2)CCC314 (centres undefined)
inactive: HT-29 17.1 µM | UACC-62 20.5 µM | KM12 19.8 µM | OVCAR-5 > 100 µM | HOP-62 30.3 µM | SK-MEL-5 19 µM | EKVX 32.4 µM | RPMI-8226 28.8 µM | RXF 393 40 µM | A549 20.5 µM | Malme-3M 19.8 µM | A498 > 42.8 µM | NCI-H23 > 57.5 µM | HOP-92 21.1 µM | NCI-H226 > 100 µM | COLO 205 19.4 µM | NCI-H522 21.4 µM

O=C1CCCC/C(=C/c2ccccc2)N1
inactive: HT-29 > 100 µM | UACC-62 > 100 µM | KM12 > 100 µM | OVCAR-5 > 100 µM | HOP-62 > 100 µM | EKVX > 100 µM | RPMI-8226 > 100 µM | RXF 393 > 100 µM | A549 > 100 µM | Malme-3M > 100 µM | A498 > 100 µM | NCI-H23 > 100 µM | HOP-92 > 100 µM | NCI-H226 > 100 µM | COLO 205 > 100 µM | NCI-H522 > 100 µM

NC1=NN(c2ccccc2)C(=O)C1C(=O)C(=O)Nc1nccs1 (centres undefined)
inactive: HT-29 > 100 µM | UACC-62 > 100 µM | KM12 > 100 µM | OVCAR-5 > 100 µM | HOP-62 > 100 µM | SK-MEL-5 > 100 µM | EKVX > 100 µM | RPMI-8226 > 100 µM | RXF 393 > 100 µM | A549 > 100 µM | Malme-3M > 100 µM | A498 > 100 µM | NCI-H23 > 100 µM | HOP-92 > 100 µM | NCI-H226 > 100 µM | COLO 205 > 100 µM | NCI-H522 > 100 µM

O=C(C(=O)N1CC2C=CC1CC2)c1c[nH]c2ccccc12 (centres undefined)
inactive: HT-29 > 100 µM | UACC-62 > 100 µM | KM12 > 100 µM | OVCAR-5 > 100 µM | HOP-62 > 100 µM | SK-MEL-5 > 100 µM | RPMI-8226 > 100 µM | RXF 393 > 100 µM | A549 > 100 µM | Malme-3M > 100 µM | A498 > 100 µM | HOP-92 > 100 µM | NCI-H226 > 100 µM | COLO 205 > 100 µM | NCI-H522 > 100 µM

CC(=O)NC(CCCCNC(=O)NCCCl)C(=O)NCc1ccccc1 (centres undefined)
inactive: HT-29 > 100 µM | UACC-62 > 100 µM | KM12 > 100 µM | HOP-62 > 100 µM | SK-MEL-5 > 100 µM | EKVX > 100 µM | RPMI-8226 > 100 µM | RXF 393 > 100 µM | A549 > 100 µM | Malme-3M > 100 µM | NCI-H23 > 100 µM | HOP-92 > 100 µM | NCI-H226 > 100 µM | COLO 205 > 100 µM | NCI-H522 > 100 µM

O=C1O/C(=C(\Br)c2cccc3ccccc23)c2ccccc21
inactive: HT-29 22.5 µM | UACC-62 35.2 µM | KM12 29.7 µM | OVCAR-5 > 40.2 µM | HOP-62 > 100 µM | SK-MEL-5 22.8 µM | EKVX > 42 µM | RPMI-8226 22.2 µM | RXF 393 > 49 µM | A549 20 µM | Malme-3M > 46.7 µM | A498 19.1 µM | NCI-H23 > 40 µM | HOP-92 29 µM | NCI-H226 > 41.3 µM | COLO 205 28.3 µM | NCI-H522 16 µM
